Assay results published in article PMC4243253 (Biochemical Journal, 2014).
Like-named read-outs stand apart in the source and are kept apart here.

Key:
BaKynB [1] = molecular target: T1, BaKynB (Bacillus anthracis, UniProt Q81PP9); test: biochemical
T1 construct: gene kynB

BaKynB [2] = molecular target: T1, BaKynB; test: biochemical; remark: listed apart in the source

T1 sequence (Q81PP9 whole entry, looked up): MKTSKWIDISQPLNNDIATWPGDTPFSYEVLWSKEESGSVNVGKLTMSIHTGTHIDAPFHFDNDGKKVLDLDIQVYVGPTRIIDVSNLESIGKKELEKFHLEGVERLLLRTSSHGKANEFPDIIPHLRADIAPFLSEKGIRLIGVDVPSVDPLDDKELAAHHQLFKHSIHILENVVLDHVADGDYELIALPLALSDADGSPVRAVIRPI

Compound	Kd (BaKynB [1]) [µM]	Kd (BaKynB [2]) [µM]
CC(=O)c1ccccc1N [2-aminoacetophenone]	~50	
Nc1ccccc1C(=O)C[C@H](N)C(=O)O [L-kynurenine, (S)-2-amino-4-(2-aminophenyl)-4-oxobutanoic acid]		~60
